The results in this text go back to ChEMBL document CHEMBL1145759, “Selective phenolic acylation of 10-hydroxycamptothecin using poly (ethylene glycol) carboxylic acid” (Bioorg Med Chem Lett, 2003).

The subject of series [1] is P388. In words: Inhibitory activity against P388 Leukemia cells. The class given is functional, cell-based. The following applies: Mus musculus.
Series [2] relates to Mus musculus. The series can be described thus: Inhibition of human colon tumor (LS174T) xenograft in nude mice. Format: functional.
For series [3], the system named is P388. The series can be described thus: Inhibitory activity against P388/0 Leukemia cells. Format: functional, cell-based. The note with it: Mus musculus.
Series [4] can be described thus: Half life measured in rat plasma. Format: ADME.
The nature of series [5]: Half life measured in PBS. The class given is ADME.

In series [1], `CC[C@@]1(O)C(=O)OCc2c1cc1n(c2=O)Cc2cc3cc(O)ccc3nc2-1` [HYDROXYCAMPTOTHECIN] came in with a 50% inhibitory concentration (IC50) of 12 nM. The same compound returned an Inhibition in series [2] of 36.5%.
`CC[C@@]1(O)C(=O)OCc2c1cc1n(c2=O)Cc2cc3cc(OC(=O)COCCO)ccc3nc2-1` had an IC50 in series [3] of 55 nM. The results for the half-life in series [4] and in series [5] were 7.2 min and 5 h, respectively. This compound returned an Inhibition in series [2] of 57.6%.
In series [1], `CC[C@@]1(O)C(=O)OCc2c1cc1n(c2=O)Cc2cc3ccccc3nc2-1` [CAMPTOTHECIN] showed an IC50 of 7 nM. Besides, the Inhibition in series [2] amounted to 4.9%.
